Data taken from PMC2364971, “A Spectroscopic Study on PtCl4^(2−) Binding to Rabbit Skeletal Muscle G-Actin” (Metal-Based Drugs, 1995).

Target: T1, G-actin (rabbit skeletal muscle) (Oryctolagus cuniculus, UniProt P68135)
T1 construct: gene ACTA1
Experiment: fluorescence of NPM reacted with free Cys374 after PtCl4^[…]- incubation; Scatchard approach, least-square fit
Type: binding

[Cl][Pt-2]([Cl])([Cl])[Cl] [PtCl4^2−]
Kd: 0.1 µM
